We go through 13 compounds from patent US12398154B2, “Azaquinazoline pan-KRas inhibitors” (Mirati Therapeutics, Inc., priority 2020, dated 2025).

For orientation: IC50 means the concentration that inhibits the measured activity by half. The low end stands for greater potency in that assay, the high end for weaker potency in that assay.

For one test, the target named is T1, KRas G13D (Homo sapiens, UniProt P01116, G13D).
T1 construct: Biotinylated KRas (corresponding to amino acids 1-169, produced at Accelegan Inc.); biotin (biotinylated); purchased Accelegan Inc
T1 sequence (P01116 1-169 isoform P01116-2 G13D): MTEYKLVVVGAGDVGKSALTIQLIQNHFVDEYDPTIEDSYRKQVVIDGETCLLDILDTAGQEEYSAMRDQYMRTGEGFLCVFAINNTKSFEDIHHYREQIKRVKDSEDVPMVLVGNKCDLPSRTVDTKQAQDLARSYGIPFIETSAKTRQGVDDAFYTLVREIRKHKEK
In words: KRas binding assay (TR-FRET displacement). For orientation: TR-FRET usually uses a lanthanide donor and a delayed reading to cut background.

A further test deals with T2, KRas Q61H (Homo sapiens, UniProt P01116, Q61H).
T2 construct: Biotinylated KRas (corresponding to amino acids 1-169, produced at Accelegan Inc.); biotin (biotinylated); purchased Accelegan Inc
T2 sequence (P01116 1-169 isoform P01116-2 Q61H): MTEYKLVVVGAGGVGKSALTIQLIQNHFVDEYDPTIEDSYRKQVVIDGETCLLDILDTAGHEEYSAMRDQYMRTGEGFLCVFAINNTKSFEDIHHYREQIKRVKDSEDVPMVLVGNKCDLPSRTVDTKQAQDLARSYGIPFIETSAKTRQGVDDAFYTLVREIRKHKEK
The experiment in a line: KRas binding assay (TR-FRET displacement).

The target of another test is KRas WT (Homo sapiens, UniProt P01116). In words: biochemical.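 Also: binding to KRas read as TR-FRET displacement after a one-hour room-temperature incubation, IC50 derived from percent-of-control values.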
Sequence of KRas WT (P01116 1-169 isoform P01116-2): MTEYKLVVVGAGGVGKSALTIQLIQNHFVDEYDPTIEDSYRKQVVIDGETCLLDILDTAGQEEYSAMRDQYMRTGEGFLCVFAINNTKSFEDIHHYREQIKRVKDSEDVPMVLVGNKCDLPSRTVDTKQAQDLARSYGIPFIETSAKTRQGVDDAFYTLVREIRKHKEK
A further test addresses KRas G12A (Homo sapiens, UniProt P01116, G12A). In words: biochemical.
The next test deals with KRas G12C (Homo sapiens, UniProt P01116, G12C). In words: biochemical.
Sequence of KRas G12C (P01116 1-169 isoform P01116-2 G12C): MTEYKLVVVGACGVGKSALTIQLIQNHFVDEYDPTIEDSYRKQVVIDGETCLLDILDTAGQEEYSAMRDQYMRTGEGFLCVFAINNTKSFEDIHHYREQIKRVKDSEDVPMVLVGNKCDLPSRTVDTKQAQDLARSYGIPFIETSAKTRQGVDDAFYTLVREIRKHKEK
Another test deals with KRas G12R (Homo sapiens, UniProt P01116, G12R). In words: biochemical.
Sequence of KRas G12R (P01116 1-169 isoform P01116-2 G12R): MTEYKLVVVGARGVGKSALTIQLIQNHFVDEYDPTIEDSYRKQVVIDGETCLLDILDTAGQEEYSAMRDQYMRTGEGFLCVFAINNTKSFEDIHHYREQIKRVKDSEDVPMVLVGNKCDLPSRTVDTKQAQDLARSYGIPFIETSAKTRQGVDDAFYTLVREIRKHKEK
A further test addresses KRas G12S (Homo sapiens, UniProt P01116, G12S). The experiment in a line: biochemical.
Another test concerns the target KRas G12D (Homo sapiens, UniProt P01116, G12D). In words: biochemical.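 Also: TR-FRET displacement binding assay on KRas, read after a one-hour incubation at room temperature, IC50 fitted from percent-of-control values.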
The target in the next test is KRas G12V (Homo sapiens, UniProt P01116, G12V). In words: biochemical.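 Also: KRas binding measured by TR-FRET displacement at room temperature, IC50 fitted from percent of control values.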
Sequence of KRas G12V (P01116 1-169 isoform P01116-2 G12V): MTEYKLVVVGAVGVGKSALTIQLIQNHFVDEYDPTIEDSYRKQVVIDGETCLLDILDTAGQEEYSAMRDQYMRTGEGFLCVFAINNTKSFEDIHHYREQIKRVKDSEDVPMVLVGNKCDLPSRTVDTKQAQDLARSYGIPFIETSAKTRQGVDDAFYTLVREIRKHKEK

Sequence of KRas G12S (P01116 1-169 isoform P01116-2 G12S): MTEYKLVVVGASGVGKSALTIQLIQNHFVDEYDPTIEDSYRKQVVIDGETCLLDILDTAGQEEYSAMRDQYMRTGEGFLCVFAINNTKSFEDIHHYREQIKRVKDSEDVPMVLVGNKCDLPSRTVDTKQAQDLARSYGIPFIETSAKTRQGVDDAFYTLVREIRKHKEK
Sequence of KRas G12D (P01116 1-169 isoform P01116-2 G12D): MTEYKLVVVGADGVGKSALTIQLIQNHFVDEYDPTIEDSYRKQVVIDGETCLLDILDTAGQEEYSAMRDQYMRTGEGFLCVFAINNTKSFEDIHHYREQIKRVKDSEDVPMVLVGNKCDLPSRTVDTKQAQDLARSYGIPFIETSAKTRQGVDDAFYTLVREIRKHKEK
Sequence of KRas G12A (P01116 1-169 isoform P01116-2 G12A): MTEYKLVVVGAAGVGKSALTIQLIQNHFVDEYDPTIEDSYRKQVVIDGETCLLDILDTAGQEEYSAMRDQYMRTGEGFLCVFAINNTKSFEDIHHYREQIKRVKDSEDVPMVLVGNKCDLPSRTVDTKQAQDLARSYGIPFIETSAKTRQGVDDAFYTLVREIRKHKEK

On to `O=C1NC(=O)C2CN(c3nc(OCC45CCCN4CCC5)nc4c(F)c(-c5cccc6cccc(F)c56)ncc34)CC12` (stereo not drawn) [Example 228, 5-(8-fluoro-7-(8-fluoronaphthalen-1-yl)-2-((hexahydro-1H-pyrrolizin-7a-yl)methoxy)pyrido[4,3-d]pyrimidin-4-yl)tetrahydropyrrolo[3,4-c]pyrrole-1,3(2H,3aH)-dione], for which the IC50 on KRas G13D was 465 nM; on KRas Q61H it was 822 nM; on KRas WT it was 2.7 µM; on KRas G12A, 1.21 µM; against KRas G12C, 1.02 µM; at KRas G12R, 0.224 µM. The IC50 at KRas G12S was 0.202 µM; on KRas G12D, 0.147 µM; at KRas G12V, 0.148 µM.
Turning to `Fc1c(-c2cccc3cccc(F)c23)ncc2c(N3CCCC4(COC4)C3)nc(OCC34CCCN3CCC4)nc12` [Example 220, 6-(8-fluoro-7-(8-fluoronaphthalen-1-yl)-2-((tetrahydro-1H-pyrrolizin-7a(5H)-yl)methoxy)pyrido[4,3-d]pyrimidin-4-yl)-2-oxa-6-azaspiro[3.5]nonane], the IC50 on KRas G13D stood at 6700 nM; on KRas Q61H, 7470 nM; against KRas WT it was 5.57 µM; at KRas G12A, 6.75 µM; at KRas G12C it was 8.25 µM; on KRas G12R it was 8.67 µM. Further, the IC50 against KRas G12S came to 6.31 µM; on KRas G12D, 10.8 µM; against KRas G12V, 6.07 µM.
For `Nc1cc2n(n1)CCCN(c1nc(OCC34CCCN3CCC4)nc3c(F)c(-c4cccc5cccc(F)c45)ncc13)C2` [Example 78, 5-(8-fluoro-7-(8-fluoronaphthalen-1-yl)-2-((hexahydro-1H-pyrrolizin-7a-yl)methoxy)pyrido[4,3-d]pyrimidin-4-yl)-5,6,7,8-tetrahydro-4H-pyrazolo[1,5-a][1,4]diazepin-2-amine], the IC50 came to 3800 nM on KRas G13D; 3300 nM at KRas Q61H; 2.68 µM against KRas WT; 2.2 µM at KRas G12A; 1.26 µM on KRas G12C; 1.76 µM against KRas G12R. Further, the figures for the IC50 against KRas G12S, on KRas G12D and at KRas G12V were 1.24 µM, 0.677 µM and 1.53 µM, respectively.
On to `Fc1c(-c2cccc3cccc(F)c23)ncc2c(NCc3nnc4cccnn34)nc(OCC34CCCN3CCC4)nc12` [Example 122, N-([1,2,4]triazolo[4,3-b]pyridazin-3-ylmethyl)-8-fluoro-7-(8-fluoronaphthalen-1-yl)-2-((tetrahydro-1H-pyrrolizin-7a(5H)-yl)methoxy)pyrido[4,3-d]pyrimidin-4-amine], for which the IC50 on KRas G13D stood at 86400 nM; on KRas Q61H, 88200 nM; against KRas WT it was 26 µM; against KRas G12A, 14.4 µM; against KRas G12C, 3.47 µM; at KRas G12R it was 12.4 µM. Moreover, the half-maximal inhibitory concentration (IC50) was 21.7 µM against KRas G12S, not below 100 µM at KRas G12D and 6.91 µM against KRas G12V.
For the compound `C[C@@H]1C[C@@H](O)CN(c2nc(OCC34CCCN3CCC4)nc3c(F)c(-c4cccc5cccc(F)c45)ncc23)C1` [Example 112, (3R,5R)-1-(8-fluoro-7-(8-fluoronaphthalen-1-yl)-2-((tetrahydro-1H-pyrrolizin-7a(5H)-yl)methoxy)pyrido[4,3-d]pyrimidin-4-yl)-5-methylpiperidin-3-ol], the IC50 at KRas G13D is 13300 nM; on KRas Q61H, 20700 nM; against KRas WT it was 36.6 µM; against KRas G12A it was 25.3 µM; against KRas G12C, 27.5 µM; against KRas G12R, 28.1 µM. The half-inhibitory concentration (IC50) was 31 µM on KRas G12S, 37.5 µM on KRas G12D and 25.9 µM against KRas G12V.
Take `Fc1c(-c2cccc3cccc(F)c23)ncc2c(NCCc3c[nH]nn3)nc(OCC34CCCN3CCC4)nc12` [Example 115, N-(2-(1H-1,2,3-triazol-4-yl)ethyl)-8-fluoro-7-(8-fluoronaphthalen-1-yl)-2-((tetrahydro-1H-pyrrolizin-7a(5H)-yl)methoxy)pyrido[4,3-d]pyrimidin-4-amine]: the IC50 on KRas G13D was determined as 21200 nM; at KRas Q61H it was 22300 nM; at KRas WT, 11.6 µM; against KRas G12A it was 10.5 µM; against KRas G12C, 6.56 µM; on KRas G12R, 4.64 µM. Besides, the IC50 against KRas G12S turned out to be 10.9 µM; against KRas G12D, 30.9 µM; on KRas G12V, 5.8 µM.
On to `N#Cc1cccnc1N1CCN(c2nc(OCC34CCCN3CCC4)nc3c(F)c(-c4cccc5cccc(F)c45)ncc23)CC1` [Example 209, 2-(4-(8-fluoro-7-(8-fluoronaphthalen-1-yl)-2-((tetrahydro-1H-pyrrolizin-7a(5H)-yl)methoxy)pyrido[4,3-d]pyrimidin-4-yl)piperazin-1-yl)nicotinonitrile], for which the IC50 at KRas G13D turned out to be 13300 nM; at KRas Q61H, 12700 nM; at KRas WT it was 4.96 µM; against KRas G12A it was 3.7 µM; against KRas G12C it was 2.52 µM; against KRas G12R it was 1.61 µM. The values for the IC50 on KRas G12S, against KRas G12D and against KRas G12V were 10.1 µM, 63.4 µM and 2.35 µM, respectively.
Take `CNS(=O)(=O)C1CCCN(c2nc(OCC34CCCN3CCC4)nc3c(F)c(-c4cccc5cccc(F)c45)ncc23)C1` (stereo not drawn) [Example 237, 1-(8-fluoro-7-(8-fluoronaphthalen-1-yl)-2-((hexahydro-1H-pyrrolizin-7a-yl)methoxy)pyrido[4,3-d]pyrimidin-4-yl)-N-methylpiperidine-3-sulfonamide]: the IC50 at KRas G13D was 8290 nM; on KRas Q61H it was 6380 nM; at KRas WT it was 4.36 µM; against KRas G12A it was 5.34 µM; at KRas G12C, 7.59 µM; at KRas G12R, 9.74 µM. The figures for the IC50 on KRas G12S, on KRas G12D and against KRas G12V were 8.92 µM, 9.56 µM and 7.61 µM, respectively.
Consider `Fc1c(-c2cccc3cccc(F)c23)ncc2c(NCCCc3cccnc3)nc(OCC34CCCN3CCC4)nc12` [Example 124, 8-fluoro-7-(8-fluoronaphthalen-1-yl)-N-(3-(pyridin-3-yl)propyl)-2-((tetrahydro-1H-pyrrolizin-7a(5H)-yl)methoxy)pyrido[4,3-d]pyrimidin-4-amine], for which the IC50 at KRas G13D was 7820 nM; at KRas Q61H, 7140 nM; against KRas WT it was 7.02 µM; against KRas G12A, 2.07 µM; against KRas G12C, 1.48 µM; against KRas G12R it was 2.19 µM. In addition, the IC50 against KRas G12S was determined as 3.87 µM; against KRas G12D it was 12.6 µM; on KRas G12V, 1.51 µM.
`O=C1NC(=O)C2(CCCN(c3nc(OCC45CCCN4CCC5)nc4c(F)c(-c5cccc6cccc(F)c56)ncc34)C2)N1` (stereo not drawn) [Example 158, 7-(8-fluoro-7-(8-fluoronaphthalen-1-yl)-2-((hexahydro-1H-pyrrolizin-7a-yl)methoxy)pyrido[4,3-d]pyrimidin-4-yl)-1,3,7-triazaspiro[4.5]decane-2,4-dione]: the IC50 on KRas G13D came to 83 nM; on KRas Q61H, 102 nM; against KRas WT it was 0.103 µM; against KRas G12A, 0.085 µM; against KRas G12C, 0.041 µM; against KRas G12R, 0.081 µM. The half-inhibitory concentration (IC50) at KRas G12S was 0.069 µM; against KRas G12D, 0.152 µM; against KRas G12V it was 0.078 µM.
On to `O=S1(=O)NCC2(CCCN(c3nc(OCC45CCCN4CCC5)nc4c(F)c(-c5cccc6cccc(F)c56)ncc34)C2)N1` (stereo not drawn) [Example 252, 7-(8-fluoro-7-(8-fluoronaphthalen-1-yl)-2-((tetrahydro-1H-pyrrolizin-7a(5H)-yl)methoxy)pyrido[4,3-d]pyrimidin-4-yl)-2-thia-1,3,7-triazaspiro[4.5]decane 2,2-dioxide], for which the IC50 is 6 nM on KRas G13D; 9 nM at KRas Q61H; 0.007 µM against KRas WT; 0.005 µM on KRas G12A; 0.017 µM against KRas G12C; 0.027 µM against KRas G12R. In addition, the IC50 amounted to 0.008 µM against KRas G12S, 0.011 µM on KRas G12D and 0.017 µM on KRas G12V.
Regarding `CS(=O)(=O)C1CCCCN(c2nc(OCC34CCCN3CCC4)nc3c(F)c(-c4cccc5cccc(F)c45)ncc23)C1` (stereo not drawn) [Example 250, 8-fluoro-7-(8-fluoronaphthalen-1-yl)-2-((hexahydro-1H-pyrrolizin-7a-yl)methoxy)-4-(3-(methylsulfonyl)azepan-1-yl)pyrido[4,3-d]pyrimidine], the IC50 on KRas G13D came to 3510 nM; on KRas Q61H, 5310 nM; against KRas WT, 3.58 µM; against KRas G12A, 3.93 µM; against KRas G12C it was 6.84 µM; against KRas G12R, 3.99 µM. The IC50 at KRas G12S is 3.8 µM; on KRas G12D, 7.31 µM; against KRas G12V, 3.41 µM.
In the case of `O=S1(=O)CC(CNc2nc(OCC34CCCN3CCC4)nc3c(F)c(-c4cccc5cccc(F)c45)ncc23)C1` [Example 127, 3-(((8-fluoro-7-(8-fluoronaphthalen-1-yl)-2-((tetrahydro-1H-pyrrolizin-7a(5H)-yl)methoxy)pyrido[4,3-d]pyrimidin-4-yl)amino)methyl)thietane 1,1-dioxide], the IC50 on KRas G13D amounted to 8700 nM; on KRas Q61H, 11100 nM; on KRas WT, 4.22 µM; at KRas G12A, 2.68 µM; on KRas G12C, 2.19 µM; against KRas G12R it was 2.58 µM. Further, the IC50 stood at 1.72 µM against KRas G12S, 25.1 µM against KRas G12D and 1.7 µM on KRas G12V.
